Legend:
Assay type in all cases: in vivo
Honeycrisp apples [1] = experiment: Apple coloration in Honeycrisp variety (Example 1), percent red pixel area; conditions: 43 hours post spray; for Average % Red Pixel Area: 50 ppm foliar spray; for Fold Change From control: 50 ppm
Experimental: 10 sets of unripened green apples, Honeycrisp variety, harvested three weeks before the normal harvest date, were each foliar sprayed with either 1) 0.05% of a mixture of polyoxyethylene-polyoxypropylene polymer, propylene glycol, 2-butoxyethanol (Regulaid®, Regulaid is a registered trademark of Kalo, Inc.) as a control, 2) 50 parts per million (“ppm”) jasmonic acid, 3) 50 ppm ACC or 4) a mixture of 50 ppm jasmonic acid and 50 ppm ACC. 43 hours post spray application percent red pixel area (shaded) was measured. Percent red pixel area is an indication of the coloration of the apple fruit.
(§1) To determine if the mixture provided unexpected results, the observed combined efficacy (“OCE”) was divided by the expected combined efficacy (“ECE”) wherein the ECE is calculated by the Abbott method: […]
(§2) wherein ECE is the expected combined efficacy and in which A and B are the fold change from control given by the single active ingredients. If the ratio between the OCE of the mixture and the ECE of the mixture is greater than 1, then greater than expected interactions are present in the mixture. (Gisi, Synergistic Interaction of Fungicides in Mixtures, The American Phytopathological Society, 86:11, 1273-1279, 1996).

Gala apples [2] = experiment: Apple coloration in Gala variety (Example 2, Table 2); conditions: 34 hours post spray; for Average % Red Pixel Area: 300 ppm foliar spray; for Fold Change From control: 300 ppm
Experimental: as §1, §2
(§3) 10 sets of unripened apples, Gala variety, harvested three weeks before the normal harvest date, were each foliar sprayed with either 1) 0.05% Regulaid® as a control, 2) 300 ppm jasmonic acid, 3) 300 ppm ACC or 4) a mixture of 300 ppm jasmonic acid and 300 ppm ACC. 34 hours post spray application percent red pixel area (shaded) was measured. Additionally, this study was repeated while adding [S]-trans-2-Amino-4-(2-aminoethoxy)-3-butenoic acid hydrochloride (Retain®, Retain is a registered trademark of Valent BioSciences LLC) to the application.

Gala apples [3] = experiment: Apple coloration in Gala variety, study repeated with Retain added (Example 2, Table 3); conditions: 300 ppm, 34 hours post spray; for Average % Red Pixel Area: Retain added to the application; for Fold Change From control: Retain added
Experimental: as §1, §2, §3

Imperial Gala apples = experiment: Apple coloration in Imperial Gala variety (Example 3); conditions: 34 hours post spray
Experimental: as §1, §2
10 sets of unripened apples, Imperial Gala variety, harvested three weeks before the normal harvest date, were each foliar sprayed with either 1) 0.05% Regulaid® as a control, 2) 50 ppm jasmonic acid, 3) 300 ppm jasmonic acid, 4) 50 ppm ACC, 5) 300 ppm ACC, 6) a mixture of 50 ppm jasmonic acid and 50 ppm ACC or 7) a mixture of 300 ppm jasmonic acid and 300 ppm ACC. 34 hours post spray application percent red pixel area (shaded) was measured.

Ultima Gala apples = experiment: Apple coloration in Ultima Gala variety (Example 4); conditions: 34 hours post spray
Honeycrisp apples [4] = experiment: Apple coloration in Honeycrisp variety (Example 5); conditions: 34 hours post spray
Experimental: as §1, §2
(§4) 10 sets of unripened apples, Honeycrisp variety, harvested three weeks before the normal harvest date, were each foliar sprayed with either 1) 0.05% Regulaid® as a control, 2) 50 ppm jasmonic acid, 3) 300 ppm jasmonic acid, 4) 50 ppm ACC, 5) 300 ppm ACC, 6) a mixture of 50 ppm jasmonic acid and 50 ppm ACC, 7) a mixture of 50 ppm jasmonic acid and 300 ppm ACC, 8) a mixture of 300 ppm jasmonic acid and 50 ppm ACC or 9) a mixture of 300 ppm jasmonic acid and 300 ppm ACC. 34 hours post spray application percent red pixel area (shaded) was measured.

Fuji apples = experiment: Apple coloration in Fuji variety (Example 6); conditions: 34 hours post spray
Experimental: as §1, §2
as §4, with “Fuji” for “Honeycrisp”

Red Aztec Fuji apples = experiment: Apple coloration in Red Aztec Fuji variety (Example 7); conditions: 34 hours post spray
Experimental: as §1, §2
as §4, with “Red Aztec Fuji” for “Honeycrisp”

Aztec Fuji apples = experiment: Apple coloration in Aztec Fuji variety (Example 8); conditions: 34 hours post spray
Experimental: as §1, §2
as §4, with “Aztec Fuji” for “Honeycrisp”

Evercrisp apples = experiment: Apple coloration in Evercrisp variety (Example 9); conditions: 34 hours post spray
Cripps Pink apples [5] = experiment: Apple coloration in Cripps Pink variety (Example 10); conditions: Cripps Pink (Example 10), 34 hours post spray
Experimental: as §1, §2
as §4, with “Cripps Pink” for “Honeycrisp”

Cripps Pink apples [6] = experiment: Apple coloration in Cripps Pink variety, repeat (Example 11); conditions: Cripps Pink (Example 11, repeat), 34 hours post spray
Experimental: as §1, §2
as §4, with “The experiment detailed in Example 10 was repeated. Specifically, 10” for “10”, “Cripps Pink” for “Honeycrisp”, “measured. The OCE/ECE ratio formula was modified to ECE=A+B−(A*B) to account for reduced average % red pixel area over control for each of the ACC applications.” for “measured.”

Pink Lady apples [7] = experiment: Apple coloration in Pink Lady variety (Example 12); conditions: 34 hours post spray
Experimental: as §1, §2
as §4, with “Pink Lady” for “Honeycrisp”, “measured. The OCE/ECE ratio formula was modified to ECE=A+B−(A*B) to account for reduced average % red pixel area over control for each of the ACC applications.” for “measured.”

Pink Lady apples [8] = experiment: Apple coloration in Pink Lady variety, 100 ppm (Example 13); conditions: 34 hours post spray
Experimental: as §1, §2
10 sets of unripened apples, Pink Lady variety, harvested three weeks before the normal harvest date, were each foliar sprayed with either 1) 0.05% Regulaid® as a control, 2) 100 ppm jasmonic acid, 3) 100 ppm ACC and 4) a mixture of 100 ppm jasmonic acid and 100 ppm ACC. 34 hours post spray application percent red pixel area (shaded) was measured. The OCE/ECE ratio formula was modified to ECE=A+B−(A*B) to account for reduced average % red pixel area over control for each of the ACC applications.

NC1(C(=O)O)CC1 [ACC, 1-amino-1-cyclopropanecarboxylic acid]
Average % Red Pixel Area (Honeycrisp apples [1]): 4.74% | Fold Change From control (Honeycrisp apples [1]): 1.18 | Average % Red Pixel Area (Gala apples [2]): 3.63% | Fold Change From control (Gala apples [2]): 0.92 | Average % Red Pixel Area (Gala apples [3]): 4.71% | Fold Change From control (Gala apples [3]): 1.03 | Average % Red Pixel Area (Imperial Gala apples; 50 ppm): 7.02% | Fold Change From control (Imperial Gala apples; 50 ppm): 0.03 | Average % Red Pixel Area (Imperial Gala apples; 300 ppm): 4.66% | Fold Change From control (Imperial Gala apples; 300 ppm): −0.31 | Average % Red Pixel Area (Ultima Gala apples; 50 ppm): 10.44% | Fold Change From control (Ultima Gala apples; 50 ppm): −0.06 | Average % Red Pixel Area (Ultima Gala apples; 300 ppm): 14.87% | Fold Change From control (Ultima Gala apples; 300 ppm): 0.34 | Average % Red Pixel Area (Honeycrisp apples [4]; 50 ppm): 4.70% | Fold Change From control (Honeycrisp apples [4]; 50 ppm): −0.49 | Average % Red Pixel Area (Honeycrisp apples [4]; 300 ppm): 3.80% | Fold Change From control (Honeycrisp apples [4]; 300 ppm): 0.59 | Average % Red Pixel Area (Fuji apples; 50 ppm): 20.61% | Fold Change From control (Fuji apples; 50 ppm): 0.02 | Average % Red Pixel Area (Fuji apples; 300 ppm): 25.47% | Fold Change From control (Fuji apples; 300 ppm): 0.26 | Average % Red Pixel Area (Red Aztec Fuji apples; 50 ppm): 17.08% | Fold Change From control (Red Aztec Fuji apples; 50 ppm): −0.04 | Average % Red Pixel Area (Red Aztec Fuji apples; 300 ppm): 15.84% | Fold Change From control (Red Aztec Fuji apples; 300 ppm): −0.11 | Average % Red Pixel Area (Aztec Fuji apples; 50 ppm): 35.07% | Fold Change From control (Aztec Fuji apples; 50 ppm): 0.10 | Average % Red Pixel Area (Aztec Fuji apples; 300 ppm): 29.25% | Fold Change From control (Aztec Fuji apples; 300 ppm): −0.09 | Average % Red Pixel Area (Evercrisp apples; 50 ppm): 46.78% | Fold Change From control (Evercrisp apples; 50 ppm): 1.48 | Average % Red Pixel Area (Evercrisp apples; 300 ppm): 72.16% | Fold Change From control (Evercrisp apples; 300 ppm): 2.82 | Average % Red Pixel Area (Cripps Pink apples [5]; 50 ppm): 54.12% | Fold Change From control (Cripps Pink apples [5]; 50 ppm): 6.67 | Average % Red Pixel Area (Cripps Pink apples [5]; 300 ppm): 57.97% | Fold Change From control (Cripps Pink apples [5]; 300 ppm): 7.15 | Average % Red Pixel Area (Cripps Pink apples [6]; 50 ppm): 34.68% | Fold Change From control (Cripps Pink apples [6]; 50 ppm): 0.70 | Average % Red Pixel Area (Cripps Pink apples [6]; 300 ppm): 48.78% | Fold Change From control (Cripps Pink apples [6]; 300 ppm): 0.99 | Average % Red Pixel Area (Pink Lady apples [7]; 50 ppm): 24.63% | Fold Change From control (Pink Lady apples [7]; 50 ppm): 0.68 | Average % Red Pixel Area (Pink Lady apples [7]; 300 ppm): 28.83% | Fold Change From control (Pink Lady apples [7]; 300 ppm): 0.80 | Average % Red Pixel Area (Pink Lady apples [8]): 19.32% | Fold Change From control (Pink Lady apples [8]): 0.80

CC/C=C\C[C@H]1C(=O)CC[C@@H]1CC(=O)O [jasmonic acid]
Average % Red Pixel Area (Honeycrisp apples [1]): 38.66% | Fold Change From control (Honeycrisp apples [1]): 9.64 | Average % Red Pixel Area (Gala apples [2]): 61.5% | Fold Change From control (Gala apples [2]): 15.53 | Average % Red Pixel Area (Gala apples [3]): 24.85% | Fold Change From control (Gala apples [3]): 5.41 | Average % Red Pixel Area (Imperial Gala apples; 50 ppm): 30.90% | Fold Change From control (Imperial Gala apples; 50 ppm): 3.54 | Average % Red Pixel Area (Imperial Gala apples; 300 ppm): 45.18% | Fold Change From control (Imperial Gala apples; 300 ppm): 5.65 | Average % Red Pixel Area (Ultima Gala apples; 50 ppm): 43.46% | Fold Change From control (Ultima Gala apples; 50 ppm): 2.91 | Average % Red Pixel Area (Ultima Gala apples; 300 ppm): 63.02% | Fold Change From control (Ultima Gala apples; 300 ppm): 4.67 | Average % Red Pixel Area (Honeycrisp apples [4]; 50 ppm): 5.00% | Fold Change From control (Honeycrisp apples [4]; 50 ppm): −0.46 | Average % Red Pixel Area (Honeycrisp apples [4]; 300 ppm): 31.37% | Fold Change From control (Honeycrisp apples [4]; 300 ppm): 2.42 | Average % Red Pixel Area (Fuji apples; 50 ppm): 24.55% | Fold Change From control (Fuji apples; 50 ppm): 0.21 | Average % Red Pixel Area (Fuji apples; 300 ppm): 60.29% | Fold Change From control (Fuji apples; 300 ppm): 1.98 | Average % Red Pixel Area (Red Aztec Fuji apples; 50 ppm): 22.53% | Fold Change From control (Red Aztec Fuji apples; 50 ppm): 0.26 | Average % Red Pixel Area (Red Aztec Fuji apples; 300 ppm): 75.2% | Fold Change From control (Red Aztec Fuji apples; 300 ppm): 3.21 | Average % Red Pixel Area (Aztec Fuji apples; 50 ppm): 38.27% | Fold Change From control (Aztec Fuji apples; 50 ppm): 0.20 | Average % Red Pixel Area (Aztec Fuji apples; 300 ppm): 71.99% | Fold Change From control (Aztec Fuji apples; 300 ppm): 1.25 | Average % Red Pixel Area (Evercrisp apples; 50 ppm): 40.67% | Fold Change From control (Evercrisp apples; 50 ppm): 1.15 | Average % Red Pixel Area (Evercrisp apples; 300 ppm): 70.81% | Fold Change From control (Evercrisp apples; 300 ppm): 2.75 | Average % Red Pixel Area (Cripps Pink apples [5]; 50 ppm): 30.79% | Fold Change From control (Cripps Pink apples [5]; 50 ppm): 3.80 | Average % Red Pixel Area (Cripps Pink apples [5]; 300 ppm): 79.81% | Fold Change From control (Cripps Pink apples [5]; 300 ppm): 9.84 | Average % Red Pixel Area (Cripps Pink apples [6]; 50 ppm): 63.91% | Fold Change From control (Cripps Pink apples [6]; 50 ppm): 1.30 | Average % Red Pixel Area (Cripps Pink apples [6]; 300 ppm): 85.52% | Fold Change From control (Cripps Pink apples [6]; 300 ppm): 1.74 | Average % Red Pixel Area (Pink Lady apples [7]; 50 ppm): 68.55% | Fold Change From control (Pink Lady apples [7]; 50 ppm): 1.91 | Average % Red Pixel Area (Pink Lady apples [7]; 300 ppm): 76.7% | Fold Change From control (Pink Lady apples [7]; 300 ppm): 2.13 | Average % Red Pixel Area (Pink Lady apples [8]): 49.9% | Fold Change From control (Pink Lady apples [8]): 2.06
